Where two headings read alike, the source gives them in different places.

The subject of data set [1] is blood platelet aggregation. Description: Anti-aggregation action in rats (graded / in words). Set-up: key to Anti-aggregation action: -: zero activity; +: significant activity; ++: intense activity; +++: very intense activity. The data set is classed as in vivo.
Text: (b) by ADP: the inhibition of aggregation (that is to say the % transmission).
The nature of data set [2]: Solubility of the isolated product. Particulars: water.
Data set [3] deals with platelets (aggregation induced by collagen). The data set can be described thus: Anti-aggregation action, platelet aggregation induced by collagen. It is filed as in vivo, male Wistar rats. The note with it: 4 days. How it is done:
(a) by collagen: the inhibition of aggregation (which corresponds to the % transmission), the latency period and the speed; and
In Table IV which follows have been shown the results relating to the anti-aggregation action of some products on the blood of male Wistar rats, the aggregating agents used being collagen/acetic acid diluted 1/10, and ADP at 1 μM.

Data set [4] in a line: Reduction of lipids and cholesterol in rats treated orally. It is filed as in vivo. Particulars: for inhibition in vivo at 20 mg/kg: po, 120 h, 5 days.
Data set [5] is described as follows: Hypo-lipidaemic and hypo-cholesterolaemic action in rats on hyper-lipid diet. Particulars: hyper-lipid diet; for inhibition at 10 mg/kg / inhibition at 25 mg/kg / inhibition at 100 mg/kg: Rattus norvegicus, normal diet = 100%, hyper-lipid diet = 0%. It is filed as in vivo, Wistar rats. The text has this: A. a batch of rats receiving a normal diet (percentage inhibition=100%);
B. a batch of rats receiving a hyper-lipid diet (percentage inhibition=0%);
C. a batch of rats receiving the hyper-lipid diet B with a daily dose, of 0.1 g/kg, of a reference product having a lipidaemia-normalising action, namely Lipavlon [ethyl 2-(p-chlorophenoxy)-2-methyl-propionate];
D. a batch of rats receiving the hyper-lipid diet B with a daily dose, of 0.1 g/kg, of another product having a lipidaemia-normalising action, namely LL 1558 [1,10-bis-(2-hydroxyethyl-thio)-decane]; and
E. a batch of rats receiving the hyper-lipid diet B with a daily dose of 10 mg/kg and 25 mg/kg, where necessary, higher doses.
In Table III which follows have been shown the results relating to CRL 40,201 (the product of Example 17) and CRL 40,202 (the product of Example 18) in respect of the hypo-lipidaemic action and hypo-cholesterolaemic action.

A short description of data set [6]: Hypo-lipidaemic and hypo-cholesterolaemic action of other products (Table V). The data set is classed as in vivo, rats. Particulars: Rattus norvegicus, 96 h; for change in vivo at 10 mg/kg: oral 10 mg/kg for 4 days; for change in vivo at 100 mg/kg: oral 100 mg/kg for 4 days. From the text:
The results of the anti-aggregation test and of the hypo-[…] action and hypo-cholesterolaemic action tests of other products of the invention have been […] Table V which follows, the code used being the following (for each dose shown): […]

Where [7] appears, read: oral daily dose 0.010 g/kg, read-out: Total cholesterol % inhibition.
Where [8] appears, read: oral daily dose 0.010 g/kg, read-out: Total lipids % inhibition.
Setting [9] is: oral daily dose 0.025 g/kg, read-out: Total cholesterol % inhibition.
Where [10] appears, read: oral daily dose 0.025 g/kg, read-out: Total lipids % inhibition.
The mark [11] stands for this setting: oral 200 mg/kg, collagen/acetic acid diluted 1/10.
The mark [12] stands for this setting: read-out: Total lipids (change).
[13] abbreviates: oral daily dose 0.1 g/kg, read-out: Total cholesterol % inhibition.
Setting [14] is: oral daily dose 0.1 g/kg, read-out: Total lipids % inhibition.

As for `CC(CO)Sc1ccc(Oc2ccc(Cl)cc2)cc1` (racemic) [CRL 40,282, (±)-2-[4-(4-Chlorophenoxy)-phenylthio]-1-propanol], the Anti-aggregation action entry in data set [1] (oral 100 mg/kg for 4 days) is “+”. In data set [2], the “solubility in water (in words)” value is reported as “water-insoluble”.
As to `CC(COC(=O)C(C)(C)Oc1ccc(Sc2ccc(Cl)cc2)cc1)SCCCCCCCCCCSC(C)COC(=O)C(C)(C)Oc1ccc(Sc2ccc(Cl)cc2)cc1` (racemic) [CRL 40,387, (±)-2,15-Dimethyl-3,14-dithia-1,16-hexadecyl di-{2-[p-(p-chlorophenylthio)-phenoxy]-2-methylpropionate}], the “effect on the blood platelet aggregation” value in data set [1] (10, 20 and 50 mg/kg orally) was “no effect”.
Consider `CC(COC(=O)CSc1ccc(Oc2ccc(Cl)cc2)cc1)SCCCCCCCCCCSC(C)COC(=O)CSc1ccc(Oc2ccc(Cl)cc2)cc1` (racemic) [CRL 40,405, (±)-2,15-Dimethyl-3,14-dithia-1,16-hexadecyl di-[p-(p-chlorophenoxy)-phenylthio-acetate]], for which, in data set [3] (100 mg/kg), the “% transmission (collagen test)” value was -10%. Besides, in data set [3] (100 mg/kg, unit not given), the “latency time (collagen test)” value was “+10” and the “speed (collagen test)” value is listed as -17. Further, the inhibition in vivo at 100 mg/kg in data set [4] (Rattus norvegicus, 96 h, oral 100 mg/kg, 4 days) came to 44%. Moreover, the inhibition in vivo at 20 mg/kg in data set [4] (Rattus norvegicus, read-out: reduction in the cholesterol) was found to be 30%. Further, the inhibition in vivo at 20 mg/kg in data set [4] (Rattus norvegicus, read-out: reduction in the lipids) was 12%. For the same molecule, the “reduction in the (total) lipids” value in data set [4] (oral 100 mg/kg, 4 days) was 35%.
Usually inhibition stands for how much of the control response was suppressed. `CC(C)(Oc1ccc(Sc2ccc(Cl)cc2)cc1)C(=O)O` [CRL 40,201, 4-(4-Chlorophenylthio)-phenoxyisobutyric acid]: the inhibition at 10 mg/kg in data set [5] (setting [7]) stood at 35%; in data set [5] (setting [8]) it was 30%. For the same molecule, the values for the inhibition at 25 mg/kg in data set [5] (setting [9]) and in data set [5] (setting [10]) were 48% and 45%, respectively. Moreover, the Total cholesterol in data set [5] (oral daily dose 0.010 g/kg) stood at 3.28 g/L; in data set [5] (oral daily dose 0.025 g/kg) it was 2.8 g/L. Besides, the results for the Total lipids in data set [5] (oral daily dose 0.010 g/kg) and in data set [5] (oral daily dose 0.025 g/kg) were 9 g/L and 7.7 g/L, respectively.
As to `CC(C)(Oc1ccc([S+]([O-])c2ccc(Cl)cc2)cc1)C(=O)O` (stereo not shown) [CRL 40,202, 4-(4-Chlorophenylsulphinyl)-phenoxyisobutyric acid], the inhibition at 10 mg/kg in data set [5] (setting [7]) came out at 26%; in data set [5] (setting [8]) it was 27%. Also, the inhibition at 25 mg/kg in data set [5] (setting [9]) stood at 59%; in data set [5] (setting [10]), 53%. Moreover, the Total cholesterol in data set [5] (oral daily dose 0.010 g/kg) turned out to be 3.64 g/L; in data set [5] (oral daily dose 0.025 g/kg), 2.38 g/L. Also, the Total lipids was found to be 9.28 g/L in data set [5] (oral daily dose 0.010 g/kg) and 7.05 g/L in data set [5] (oral daily dose 0.025 g/kg).
As for `CC(C)(Oc1ccc(Sc2ccc(Cl)cc2)cc1)C(=O)NCCO` [CRL 40,251, N-Hydroxyethyl-4-(4-chlorophenylthio)-phenoxy-isobutyramide], in data set [3] (setting [11]), the “change in aggregation, collagen, latency period” value is recorded as “+23%” and the “change in aggregation, collagen, speed” value is listed as -21%. For the same molecule, the “solubility in water (in words)” value in data set [2] was “insoluble in water”.
Regarding `CC(C)(Oc1ccc(Sc2ccc(Cl)cc2)cc1)C(=O)OCCSCCCCCCCCCCSCCOC(=O)C(C)(C)Oc1ccc(Sc2ccc(Cl)cc2)cc1` [CRL 40,253, 3,14-Dithia-1,16-hexadecyl di-[4-(4-chlorophenylthio)-phenoxyisobutyrate]], the change in vivo at 10 mg/kg in data set [6] (read-out: Cholesterol (change)) and in data set [6] (setting [12]) was -40% throughout. The “solubility in water (in words)” value in data set [2] was “insoluble in water”.
As for `CC(C)(CO)Oc1ccc(Oc2ccc(Cl)cc2)cc1` [CRL 40,310, 4-(4-Chlorophenoxy)-phenoxy-isobutanol], the change in vivo at 100 mg/kg in data set [6] (read-out: Cholesterol (change)) is -32%; in data set [6] (setting [12]), -20%. For the same molecule, in data set [2], the “solubility in water (in words)” value is “insoluble in water”.
As to `OCCSCCCCCCCCCCSCCO` [LL 1558, 1,10-bis-(2-hydroxyethyl-thio)-decane, reference compound], in data set [5] (setting [13]), the inhibition at 100 mg/kg was 63%. The inhibition at 100 mg/kg in data set [5] (setting [14]) worked out at 54%. In addition, in data set [5] (oral daily dose 0.1 g/kg), the Total cholesterol worked out at 2.22 g/L and the Total lipids amounted to 7 g/L.
In the same order, the values of `CCOC(=O)C(C)(C)Oc1ccc(Cl)cc1` [Lipavlon, ethyl 2-(p-chlorophenoxy)-2-methyl-propionate, reference compound] are 11%, 14%, 4.18 g/L and 10.4 g/L.

The values above are taken from patent US4156011A, “Sulphur- and oxygen-containing diaryl compounds” (priority 1974, dated 1979).
